{"source": "patent US4761414A", "about": "“Substituted 1H-pyrimido[1,2-a-]-pyrido[3,4-e]pyrazine 6 oxides” (G. D. Searle & Co., priority 1986, dated 1988)", "assay_type_in_all_cases": "cell-based", "key": {"[1]": {"tested_on": "Clostridium perfringens NCTC 8237", "experiment": "microbe, parasite or virus in culture", "details": "procedures of Example 40"}, "Peptococcous magnus": {"tested_on": "Peptococcous magnus", "experiment": "MIC vs panel of anaerobes", "details": "procedures of Example 40"}, "[2]": {"tested_on": "Bacteroides melanogenicus NCTC 9336", "experiment": "MIC vs panel of anaerobes", "details": "NCTC9336, procedures of Example 40"}, "Peptostreptococcus": {"tested_on": "Peptostreptococcus", "experiment": "MIC vs panel of anaerobes", "details": "procedures of Example 40"}, "[3]": {"tested_on": "Propionebacterium acnes NCTC 737", "experiment": "MIC vs panel of anaerobes", "details": "procedures of Example 40"}, "B. fragilis NCTC 9343": {"tested_on": "B. fragilis NCTC 9343", "experiment": "MIC/MBC against Bacteroides fragilis strain B", "details": "for MBC: NCTC9343, 99.9% reduction in viable count; for MIC: NCTC9343, 48 h, 48 hours, 37° C., anaerobic", "method": "(§1) The screening panel utilized in this Example consisted of 5 strains of Bacteroides fragilis. All assays were carried out in 96-well microtitre plates. If an isolate was obtained from either a culture collection or clinical source, the isolate was immediately inoculated into Wilkens-Chalgren broth (Oxoid) and incubated at 37° C. in an anaerobic chamber in an atmosphere of 85% nitrogen, 10% carbon dioxide, and 5% hydrogen for 48 hours. At the end of this time, the viable count was about 10^12 organisms/ml broth. A 1 ml aliquot of each culture was placed in an ampoule and quick frozen in acetone-dry ice mixture and stored in liquid nitrogen. When an inoculum was utilized in an assay, one of the ampoules was thawed and diluted with fresh broth to yield a suspension having a count of 5×10^5 organisms/ml. A 100 μl aliquot of this suspension was inoculated into each well of the microtitre plate. A 2 mg sample of the test compound was dissolved in 0.2 ml of a suitable solvent such as dimethylsulfoxide, polyethylene glycol 200 or methanol. […] After addition of the test solution the final inoculum level was 10^5 cells/ml. The plates were incubated for 48 hours at 37° C. in the anaerobic chamber. The Minimum Inhibitory Concentration (MIC) was read visually. The MIC is defined as the lowest concentration at which there is no detectable growth. The Minimum Bactericidal Concentration (MBC) was determined by taking 50 μl aliquot from each well and placing it in fresh medium. […] The strains of Bacteroides fragilis utilized in the above procedure are identified by letter in accordance with the following legend: |B B. fragilis NCTC 9343"}, "[4]": {"tested_on": "Campylobacter fetus ss. jejuni ATCC 29428", "experiment": "MIC vs panel of anaerobes", "details": "ATCC29428, procedures of Example 40"}, "B. fragilis NCTC 9344": {"tested_on": "B. fragilis NCTC 9344", "experiment": "MIC/MBC against Bacteroides fragilis strain C", "details": "for MBC: NCTC9344, 99.9% reduction in viable count; for MIC: NCTC9344, 48 h, 48 hours, 37° C., anaerobic", "method": "as §1, with “|C” for “|B”, “9344” for “9343”"}, "[5]": {"tested_on": "Fusobacterium necrophorum ATCC 11295", "experiment": "MIC vs panel of anaerobes", "details": "Fusobacterium necrophorum, ATCC11295, Fusobacterium necrophorum ATCC 11295; procedures of Example 40; read-out: MIC"}, "[6]": {"details": "Clostridium perfringens, NCTC8237, Clostridium perfringens NCTC 8237"}}}
{"smiles": "CC1(C)CN=C2C(c3ccccc3)=[N+]([O-])c3ccncc3N2C1", "note": "[Example 14, 2,3-Dihydro-2,2-dimethyl-5-phenyl-1H-pyrimido[1,2-a]pyrido[4,3-e]pyrazine 6-oxide]", "values": [{"measurement": "MIC", "setting": "[1]; [6]", "value": 25, "unit": "µg/mL"}, {"measurement": "MIC", "setting": "Peptococcous magnus", "value": 100, "unit": "µg/mL"}, {"measurement": "MIC", "setting": "[2]", "value": 100, "unit": "µg/mL"}, {"measurement": "MIC", "setting": "Peptostreptococcus", "value": 100, "unit": "µg/mL"}, {"measurement": "MIC", "setting": "[3]", "value": "> 100", "unit": "µg/mL"}, {"measurement": "MBC", "setting": "B. fragilis NCTC 9343", "value": 6.2, "unit": "µg/mL"}, {"measurement": "MIC", "setting": "B. fragilis NCTC 9343", "value": 3.1, "unit": "µg/mL"}, {"measurement": "MIC", "setting": "[4]", "value": 100, "unit": "µg/mL"}, {"measurement": "MBC", "setting": "B. fragilis NCTC 9344", "value": 6.2, "unit": "µg/mL"}, {"measurement": "MIC", "setting": "B. fragilis NCTC 9344", "value": 6.2, "unit": "µg/mL"}, {"measurement": "MIC", "setting": "[5]", "value": 25, "unit": "µg/mL"}]}
{"smiles": "CC1(C)CN=C2C(c3ccccc3)=[N+]([O-])c3cccnc3N2C1", "note": "[Example 16, 2,3-Dihydro-2,2-dimethyl-5-phenyl-1H-pyrimido[1,2-a]pyrido[3,2-e]pyrazine 6-oxide]", "values": [{"measurement": "MIC", "setting": "[1]; Clostridium perfringens NCTC 8237", "value": 12.5, "unit": "µg/mL"}, {"measurement": "MIC", "setting": "Peptococcous magnus", "value": "< 0.8", "unit": "µg/mL"}, {"measurement": "MIC", "setting": "[2]", "value": 25, "unit": "µg/mL"}, {"measurement": "MIC", "setting": "Peptostreptococcus", "value": 25, "unit": "µg/mL"}, {"measurement": "MIC", "setting": "[3]", "value": 100, "unit": "µg/mL"}, {"measurement": "MBC", "setting": "B. fragilis NCTC 9343", "value": 1.5, "unit": "µg/mL"}, {"measurement": "MIC", "setting": "B. fragilis NCTC 9343", "value": 1.5, "unit": "µg/mL"}, {"measurement": "MBC", "setting": "B. fragilis NCTC 9344", "value": 1.5, "unit": "µg/mL"}, {"measurement": "MIC", "setting": "B. fragilis NCTC 9344", "value": 1.5, "unit": "µg/mL"}, {"measurement": "MIC", "setting": "[5]", "value": "< 0.8", "unit": "µg/mL"}]}
{"smiles": "CC1(C)CN=C2C(c3ccc(Cl)cc3)=[N+]([O-])c3cccnc3N2C1", "note": "[Example 18, 2,3-Dihydro-5-(4-chlorophenyl)-2,2-dimethyl-1H-pyrimido[1,2-a]pyrido[3,2-e]pyrazine 6-oxide]", "values": [{"measurement": "MIC", "setting": "[1]; [6]", "value": 6.2, "unit": "µg/mL"}, {"measurement": "MIC", "setting": "Peptococcous magnus", "value": "< 0.8", "unit": "µg/mL"}, {"measurement": "MIC", "setting": "[2]", "value": 25, "unit": "µg/mL"}, {"measurement": "MIC", "setting": "Peptostreptococcus", "value": 25, "unit": "µg/mL"}, {"measurement": "MIC", "setting": "[3]", "value": 100, "unit": "µg/mL"}, {"measurement": "MBC", "setting": "B. fragilis NCTC 9343", "value": "< 0.8", "unit": "µg/mL"}, {"measurement": "MIC", "setting": "B. fragilis NCTC 9343", "value": "< 0.8", "unit": "µg/mL"}, {"measurement": "MBC", "setting": "B. fragilis NCTC 9344", "value": 1.5, "unit": "µg/mL"}, {"measurement": "MIC", "setting": "B. fragilis NCTC 9344", "value": 1.5, "unit": "µg/mL"}, {"measurement": "MIC", "setting": "[5]", "value": "< 0.8", "unit": "µg/mL"}]}
{"smiles": "Cc1ccc(C2=[N+]([O-])c3cccnc3N3CC(C)(C)CN=C23)cc1", "note": "[Example 20, 2,3-Dihydro-2,2-dimethyl-5-(4-methylphenyl)-1H-pyrimido[1,2-a]pyrido[3,2-e]pyrazine 6-oxide]", "values": [{"measurement": "MIC", "setting": "[1]; [6]", "value": 1.5, "unit": "µg/mL"}, {"measurement": "MIC", "setting": "Peptococcous magnus", "value": 25, "unit": "µg/mL"}, {"measurement": "MIC", "setting": "[2]", "value": 50, "unit": "µg/mL"}, {"measurement": "MIC", "setting": "Peptostreptococcus", "value": 50, "unit": "µg/mL"}, {"measurement": "MIC", "setting": "[3]", "value": "> 100", "unit": "µg/mL"}, {"measurement": "MBC", "setting": "B. fragilis NCTC 9343", "value": 6.2, "unit": "µg/mL"}, {"measurement": "MIC", "setting": "B. fragilis NCTC 9343", "value": 6.2, "unit": "µg/mL"}, {"measurement": "MIC", "setting": "[4]", "value": 25, "unit": "µg/mL"}, {"measurement": "MBC", "setting": "B. fragilis NCTC 9344", "value": 1.5, "unit": "µg/mL"}, {"measurement": "MIC", "setting": "B. fragilis NCTC 9344", "value": 1.5, "unit": "µg/mL"}, {"measurement": "MIC", "setting": "[5]", "value": 1.5, "unit": "µg/mL"}]}
